# Laboratory results taken from the supplement of paper PMC10307832.
# Columns and labels:
# Assay in all cases: relative viability (nuclei count vs DMSO), 5 days (fraction); higher = more cells survive
# [1] = compound: CC(=O)Nc1cccc(-n2c(=O)n(C3CC3)c(=O)c3c(Nc4ccc(I)cc4F)n(C)c(=O)c(C)c32)c1 [Trametinib] + N=C(N)NC(=N)NCCc1ccccc1 [Phenformin] (partner 250 µM)
# In short: (§1)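 Five library-drug doses in √10 steps were combined with a fixed anchor-drug dose, or a single drug was given alone, by pin tool to lung cancer cell lines in 1536-well plates the day after seeding. Nuclei were stained and counted after 5 days. Relative viability is the nuclei count in treated wells over that in vehicle wells, taken as the median of duplicate plates.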
# [2] = compound: CC(=O)Nc1cccc(-n2c(=O)n(C3CC3)c(=O)c3c(Nc4ccc(I)cc4F)n(C)c(=O)c(C)c32)c1 [Trametinib] + O=C(c1cc(Cc2n[nH]c(=O)c3ccccc23)ccc1F)N1CCN(C(=O)C2CC2)CC1 [Olaparib] (partner 8 µM)
# In short: as §1
# [3] = compound: CN1C=C(C2=CC=CC=C21)/C=C\3/C4=C(C=CC=N4)NC3=O + C[C@@H](Oc1cc(-c2cnn(C3CCNCC3)c2)cnc1N)c1c(Cl)ccc(F)c1Cl [Crizotinib] (partner 1 µM)
# In short: as §1
# [4] = compound: CN1C=C(C2=CC=CC=C21)/C=C\3/C4=C(C=CC=N4)NC3=O + N=C(N)NC(=N)NCCc1ccccc1 [Phenformin] (partner 250 µM)
# In short: as §1
Cell Line,relative viability ([1]; first compound 0.0025 µM),relative viability ([1]; first compound 0.007906 µM),relative viability ([1]; first compound 0.025 µM),relative viability ([1]; first compound 0.07906 µM),relative viability ([1]; first compound 0.25 µM),relative viability ([2]; first compound 0.0025 µM),relative viability ([2]; first compound 0.007906 µM),relative viability ([2]; first compound 0.025 µM),relative viability ([2]; first compound 0.07906 µM),relative viability ([2]; first compound 0.25 µM),relative viability ([3]; first compound 0.02 µM),relative viability ([3]; first compound 0.06325 µM),relative viability ([3]; first compound 0.2 µM),relative viability ([3]; first compound 0.6325 µM),relative viability ([3]; first compound 2 µM),relative viability ([4]; first compound 0.02 µM),relative viability ([4]; first compound 0.06325 µM),relative viability ([4]; first compound 0.2 µM),relative viability ([4]; first compound 0.6325 µM),relative viability ([4]; first compound 2 µM)
NCI-H441,0.744,0.836,0.501,0.561,0.252,0.601,0.614,0.535,0.483,0.389,0.972,0.706,0.72,0.89,0.767,0.795,0.754,0.804,0.88,0.772
NCI-H520,0.543,0.666,0.392,0.608,0.199,0.353,0.317,0.355,0.306,0.302,0.569,0.828,0.885,0.773,0.807,0.453,0.503,0.54,0.669,0.533
CAL-12T,0.457,0.376,0.295,0.267,0.229,0.692,0.555,0.522,0.511,0.487,0.552,0.654,0.549,0.81,0.743,0.507,0.537,0.613,0.612,0.601
HCC-827,0.374,0.373,0.334,0.313,0.313,0.612,0.571,0.563,0.507,0.337,0.835,0.916,–,0.96,0.978,0.405,0.413,–,0.465,0.388
LC-2-ad,0.625,0.543,0.5,0.427,0.338,0.683,0.663,0.706,0.695,0.604,0.439,0.468,–,0.409,0.686,0.595,0.546,0.414,0.537,0.549
NCI-H2170,0.351,0.414,0.399,0.357,0.333,0.654,0.609,–,0.548,0.52,–,1.13,1.35,1.16,1.15,0.354,0.366,0.327,0.405,0.4
SW 1573,0.29,0.279,0.255,0.156,0.15,0.414,0.456,0.407,0.342,0.223,0.727,0.832,0.816,0.712,0.874,0.394,0.344,0.436,0.352,0.441
SK-MES-1,0.64,0.64,0.481,0.43,0.287,0.841,0.737,0.546,0.373,0.245,0.972,0.84,1.03,0.976,0.967,0.653,0.634,0.715,0.672,0.624
NCI-H1648,–,–,–,–,–,0.828,0.671,0.88,0.653,0.555,–,–,–,–,–,–,–,–,–,–
NCI-H1793,0.329,0.314,0.283,0.176,0.219,0.529,0.461,0.361,0.29,0.211,–,–,–,–,–,0.393,0.41,0.314,0.403,0.368
NCI-H1299,–,–,–,–,–,1.04,1,0.942,0.832,0.587,0.937,0.945,0.911,1.07,0.901,–,–,–,–,–
LCLC-97TM1,0.415,0.448,0.383,0.301,0.288,0.304,0.41,0.254,0.188,0.0956,0.232,–,–,0.331,0.419,0.462,0.408,0.411,0.442,0.428
NCI-H1915,0.38,0.306,0.249,0.304,0.141,0.266,0.21,0.198,0.168,0.144,0.767,0.873,0.87,1.07,0.973,0.331,0.361,0.365,0.347,0.36
NCI-H661,0.298,0.289,0.257,0.28,0.246,0.718,0.704,0.633,0.637,0.564,1.07,1.01,1.11,1.04,1.14,0.261,0.277,0.266,0.276,0.264
NCI-H2405,0.326,0.316,0.28,0.202,0.251,0.859,0.799,0.83,–,0.53,0.769,0.832,–,0.829,0.821,0.416,0.381,0.366,0.328,0.4
NCI-H2347,0.225,0.125,0.233,0.164,0.143,0.535,0.383,0.372,0.321,0.316,0.588,0.802,0.607,0.694,0.674,–,0.374,0.297,0.318,0.46
NCI-H1651,0.26,0.293,0.296,0.288,0.182,0.197,0.178,0.182,0.179,0.161,0.804,0.905,0.876,0.819,0.895,0.377,0.344,0.305,0.327,0.397
H3255,0.346,0.368,0.342,0.297,0.263,0.559,0.533,0.476,0.461,0.411,0.91,0.935,0.874,0.888,0.889,0.384,0.36,0.341,0.327,0.366
Calu-6,–,–,–,–,–,0.589,0.452,0.214,0.142,0.129,0.675,0.783,0.815,0.772,0.816,–,–,–,–,–

Cell Line,relative viability ([1]; first compound 0.0025 µM),relative viability ([1]; first compound 0.007906 µM),relative viability ([1]; first compound 0.025 µM),relative viability ([1]; first compound 0.07906 µM),relative viability ([1]; first compound 0.25 µM),relative viability ([2]; first compound 0.0025 µM),relative viability ([2]; first compound 0.007906 µM),relative viability ([2]; first compound 0.025 µM),relative viability ([2]; first compound 0.07906 µM),relative viability ([2]; first compound 0.25 µM),relative viability ([3]; first compound 0.02 µM),relative viability ([3]; first compound 0.06325 µM),relative viability ([3]; first compound 0.2 µM),relative viability ([3]; first compound 0.6325 µM),relative viability ([3]; first compound 2 µM),relative viability ([4]; first compound 0.02 µM),relative viability ([4]; first compound 0.06325 µM),relative viability ([4]; first compound 0.2 µM),relative viability ([4]; first compound 0.6325 µM),relative viability ([4]; first compound 2 µM)
SW 900,0.579,0.532,0.457,0.487,0.143,0.838,0.782,0.669,0.809,0.518,–,–,–,–,–,0.468,0.434,–,0.589,0.809
NCI-H650,0.532,0.52,0.501,0.426,0.403,0.444,0.434,0.568,0.649,0.542,0.586,0.601,–,0.771,0.797,0.474,0.481,–,0.421,0.404
NCI-H460,0.502,0.332,0.237,0.135,0.041,0.43,0.265,0.313,0.217,0.0898,0.994,0.99,0.932,–,0.902,0.553,0.526,0.52,0.56,0.571
NCI-H2228,0.319,0.225,0.152,0.161,0.138,0.691,0.541,0.641,0.422,0.224,0.386,0.489,–,0.373,0.425,0.213,0.273,–,–,0.304
NCI-H2085,0.588,0.509,0.332,0.464,0.25,0.766,0.659,0.558,0.638,0.615,0.738,0.892,0.752,0.868,0.803,0.74,0.656,0.647,0.778,0.72
HCC-366,0.57,0.574,0.372,0.49,0.226,0.294,0.293,0.206,0.145,0.0982,0.351,0.387,0.579,0.472,0.398,0.578,0.641,0.602,0.664,0.667
EPLC-272H,0.273,0.194,0.171,0.15,0.128,0.628,0.406,0.332,0.322,0.173,0.924,0.96,–,0.909,1.06,0.287,0.244,0.242,–,0.3
201T,0.397,0.412,0.44,0.437,0.423,0.841,0.782,0.747,0.678,0.642,1.01,1.04,1.05,1.12,1.01,0.434,0.451,0.429,0.394,0.422
NCI-H3122,0.381,0.296,0.282,0.243,0.233,0.558,0.532,0.43,0.263,0.237,0.226,0.231,0.275,0.29,0.28,0.347,0.333,–,0.375,0.355
NCI-H838,0.515,0.509,0.281,0.369,0.351,0.703,0.675,0.622,0.674,0.587,0.615,0.657,0.761,0.707,0.833,0.5,0.533,0.519,0.569,0.535
NCI-H1755,0.593,0.587,0.608,0.594,0.512,0.849,0.826,0.804,0.807,0.742,0.855,0.802,0.827,0.836,0.919,0.532,0.537,0.523,0.263,0.571
NCI-H2342,0.49,0.549,–,0.403,0.56,0.404,0.4,0.327,0.359,0.399,–,–,–,–,–,0.623,0.641,0.486,0.57,0.505
NCI-H522,0.575,0.657,0.506,0.574,0.434,0.617,0.485,0.583,0.555,0.545,–,–,–,–,–,0.579,0.672,0.703,0.58,0.644
EBC-1,–,–,–,–,–,0.745,0.681,0.543,0.179,0.195,0.233,0.182,0.192,0.183,0.207,–,–,–,–,–
IA-LM,–,–,–,–,–,0.826,0.74,0.244,0.242,0.167,0.732,0.724,0.668,0.615,0.521,–,–,–,–,–
NCI-H1703,–,–,–,–,–,0.492,0.513,0.323,0.385,0.274,0.724,0.783,0.556,0.699,0.604,–,–,–,–,–
NCI-H1623,0.588,0.48,0.291,0.396,0.634,–,–,–,–,–,–,–,–,–,–,0.631,0.537,0.546,0.513,0.564
NCI-H1563,0.637,0.636,0.676,0.597,0.59,–,–,–,–,–,0.871,0.897,0.736,0.893,0.971,0.627,0.64,0.635,0.672,0.684
NCI-H1395,0.479,0.445,0.432,0.416,0.328,0.441,0.458,0.419,0.463,0.392,–,–,–,–,–,0.436,0.429,0.365,0.446,0.414
